Source: article PMC5036131, “Fragment-based discovery of a new family of non-peptidic small-molecule cyclophilin inhibitors with potent antiviral activities” (Nature Communications, 2016)

What was measured:
CYP1A2 = target: T1, CYP1A2 (Homo sapiens, UniProt P05177); assay: Metabolism by recombinant human cytochrome P450, CYP1A2; assay type: in vitro ADME; settings: recombinant enzyme
T1 sequence (P05177 1-516): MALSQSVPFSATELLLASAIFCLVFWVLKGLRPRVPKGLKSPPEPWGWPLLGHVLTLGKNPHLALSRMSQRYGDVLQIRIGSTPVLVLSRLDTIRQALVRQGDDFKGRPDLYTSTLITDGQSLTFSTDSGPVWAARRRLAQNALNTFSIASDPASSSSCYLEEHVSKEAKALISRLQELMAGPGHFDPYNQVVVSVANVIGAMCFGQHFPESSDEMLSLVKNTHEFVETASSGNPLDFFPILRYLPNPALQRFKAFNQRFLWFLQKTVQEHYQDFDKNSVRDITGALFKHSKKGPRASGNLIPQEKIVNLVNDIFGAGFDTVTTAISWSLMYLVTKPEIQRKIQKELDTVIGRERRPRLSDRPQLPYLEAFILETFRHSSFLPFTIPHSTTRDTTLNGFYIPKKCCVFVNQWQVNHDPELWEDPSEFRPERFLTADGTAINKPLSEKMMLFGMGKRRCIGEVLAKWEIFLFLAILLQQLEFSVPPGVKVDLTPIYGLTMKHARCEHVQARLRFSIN
Description: (§1) […] of compound was incubated with individual bacterially expressed recombinant human cytochromes P450 co-expressed with human NADPH cytochrome P450 reductase. […] Enzyme-selective positive control substrates were tested in parallel.

Caco-2 cells = assay: Caco-2 cell permeability; assay type: in vitro ADME; settings: Caco-2 monolayers, 10 μM
Description: Permeability and efflux potential were determined using confluent (≥21 day) monolayers of Caco-2 cells grown on transwell filters. Compounds were added to donor wells at a target concentration of 10 μM and rates of appearance in receiver wells (containing 1% BSA to maintain sink conditions) were determined by liquid chromatography coupled to tandem mass spectrometry (LC-MS/MS).

CYP2B6 [1] = target: T2, CYP2B6 (Homo sapiens, UniProt P20813); assay: Metabolism by recombinant human cytochrome P450, CYP2B6; assay type: in vitro ADME; settings: recombinant enzyme
T2 sequence (P20813 1-491): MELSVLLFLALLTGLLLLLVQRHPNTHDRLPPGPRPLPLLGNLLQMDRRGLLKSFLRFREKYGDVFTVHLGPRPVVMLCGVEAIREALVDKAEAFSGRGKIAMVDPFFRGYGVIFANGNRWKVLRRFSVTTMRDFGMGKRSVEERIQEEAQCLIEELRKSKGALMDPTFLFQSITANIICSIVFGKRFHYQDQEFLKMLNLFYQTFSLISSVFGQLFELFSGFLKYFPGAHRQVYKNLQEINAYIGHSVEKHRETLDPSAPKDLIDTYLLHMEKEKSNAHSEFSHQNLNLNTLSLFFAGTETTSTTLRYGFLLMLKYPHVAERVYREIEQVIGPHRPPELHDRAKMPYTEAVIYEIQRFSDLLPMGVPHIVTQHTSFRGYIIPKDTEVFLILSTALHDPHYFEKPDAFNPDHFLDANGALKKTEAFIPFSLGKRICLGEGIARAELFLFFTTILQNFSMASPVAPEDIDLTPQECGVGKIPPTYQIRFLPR
Description: as §1

Kinetic solubility = assay type: physicochemical; settings: target concentration 100 μM, 24 h; for Solubility HCl (pH 1.0): 0.1 N HCl pH 1.0
Description: The solutions were incubated at room temperature with shaking for 24 h and were then centrifuged, and the recovered supernatants assayed by HPLC with diode array ultraviolet/visible detection. Solubility values were calculated by comparing the amount (by chromatographic peak area) of compound detected in the defined test solution with an unextracted standard. Relative chemical stabilities of compounds after 24 h incubation in PBS at 37 °C were also determined. The solubility and chemical stability of a quality-control compound (amprenavir) were determined in parallel.

CYP2B6 [2] = target: T2, CYP2B6; assay: Cytochrome P450 enzyme inhibition assay, CYP2B6; assay type: in vitro ADME; parameters: incubated with human hepatic microsomal fractions and NADPH; from tissue; host or cells: human hepatic microsomal fractions; settings: human hepatic microsomal fractions, up to 25 μM
Description: Up to 25 μM of compounds 29 and 30 was incubated with human hepatic microsomal fractions and NADPH in the presence of individual probe substrates. All assays were designed so that conditions were linear with respect to time and protein concentration. Substrates were present at concentrations equal to or lower than their respective Km values. Enzyme selective products were determined by fluorometry (ethoxyresorufin O-deethylase) or by specific LC-MS/MS assays. Relative enzyme activities were determined by comparison with those assayed with DMSO vehicle instead of inhibitor. IC50 values were calculated by nonlinear curve fitting using a sigmoidal model. Positive control inhibitors for each enzyme were tested in parallel.

CYP2C8 = target: T3, CYP2C8 (Homo sapiens, UniProt P10632); assay: Metabolism by recombinant human cytochrome P450, CYP2C8; assay type: in vitro ADME; settings: recombinant enzyme
T3 sequence (P10632 1-490): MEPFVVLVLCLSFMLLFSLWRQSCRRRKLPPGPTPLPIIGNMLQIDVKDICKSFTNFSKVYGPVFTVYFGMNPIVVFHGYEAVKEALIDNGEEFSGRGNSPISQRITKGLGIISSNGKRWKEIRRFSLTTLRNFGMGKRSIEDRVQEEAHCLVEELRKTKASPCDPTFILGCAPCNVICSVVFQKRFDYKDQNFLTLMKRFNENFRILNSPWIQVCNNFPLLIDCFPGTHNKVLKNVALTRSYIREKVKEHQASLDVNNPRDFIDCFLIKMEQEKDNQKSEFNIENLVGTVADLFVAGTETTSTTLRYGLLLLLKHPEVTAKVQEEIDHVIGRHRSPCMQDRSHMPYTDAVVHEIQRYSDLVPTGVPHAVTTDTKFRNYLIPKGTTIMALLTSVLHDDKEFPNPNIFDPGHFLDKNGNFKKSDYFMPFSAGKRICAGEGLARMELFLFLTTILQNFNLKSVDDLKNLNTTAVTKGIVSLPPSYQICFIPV
Description: as §1

[3] = Stability with hepatic microsomal fractions; assay type: in vitro ADME; settings: human microsomes 0.5 mg protein/ml, NADPH, 3 μM
Description: The compounds (3 μM) were incubated in duplicate for up to 1 h in the presence of human hepatic microsomal fractions (0.5 mg protein ml^−1 final) at 37 °C. The addition of cofactor solution (NADPH generating system) initiated the reaction and aliquots were removed at 0, 5, 15, 30, 45 and 60 min after the start. The concentrations of the compounds in each sample were determined using specific LC-MS/MS assays. The half-life for the disappearance of each was determined by fitting the concentration-time data with a monophasic exponential model. A control compound (verapamil) was run in parallel to test the enzymatic integrity of the microsomal fractions.

MRC5 cells = assay: Cellular toxicity in MRC5 cells; settings: read-out: MRC5 cells CC50; MRC5 cells

CSCCC(NC(=O)NCc1ccc(N)cc1)C(=O)N1CCCC1c1ccccc1SC.O=C(O)C(F)(F)F (stereo not shown) [Compound 30]
Rate of metabolism by human cytochrome P450 CYP1A2 (CYP1A2): < 0.12 pmol/pmol P450/min | Rate of metabolism by human cytochrome P450 CYP1A2 (CYP1A2; listed as compound 30): Neither compound 29 nor compound 30 was metabolized | Apparent permeability Forward (Caco-2 cells): 195 nm/s | Apparent permeability Forward (Caco-2 cells; listed as compound 30): high | Apparent permeability Reverse (Caco-2 cells; reverse): 397 nm/s | Rate of metabolism by human cytochrome P450 CYP2B6 (CYP2B6 [1]): < 0.12 pmol/pmol P450/min | Rate of metabolism by human cytochrome P450 CYP2B6 (CYP2B6 [1]; listed as compound 30): Neither compound 29 nor compound 30 was metabolized | Solubility HCl (pH 1.0) (Kinetic solubility): > 100 | Solubility HCl (pH 1.0) (Kinetic solubility; listed as compound 30): very soluble | Solubility PBS (pH 7.4) (Kinetic solubility): > 100 | Solubility PBS (pH 7.4) (Kinetic solubility; listed as compound 30): very soluble | IC50 (CYP2B6 [2]): > 25 µM | Inhibition of cytochrome P450 activity, IC50 CYP2B6 (CYP2B6 [2]): Neither compound 29 nor compound 30 significantly inhibited | Rate of metabolism by human cytochrome P450 CYP2C8 (CYP2C8): 0.56 pmol/pmol P450/min | Hepatic microsomal stability, T1/2 [3]: 35.5 min | CC50 (MRC5 cells): > 100 µM
